According to article PMC3961306, “Comparison of the Cancer Gene Targeting and Biochemical Selectivities of All Targeted Kinase Inhibitors Approved for Clinical Use” (PLoS ONE, 2014):
Read-outs that look alike come from different tables or passages of the source.

What was measured:
[1] = system: forty-four human cancer cell lines; test: Cell proliferation assay (ATPlite, 72 hours) in the 44 cell line Oncolines panel; type: cell-based; details: for IC50: Homo sapiens
[2] = target: panel of more than 300 wild-type and mutant kinases (313 kinase panel) (Homo sapiens, UniProt P11362, V561M); test: Kinase profiling in a biochemical assay panel (mobility shift assays and ELISA), %-inhibition at 1 μM; selectivity entropy; details: kinase FGFR1(V561M); compound at 1 μM
[3] = A 172, read-out: cell panel IC50, A-172
[4] = A498, read-out: cell panel IC50, A-498
[5] = A549, read-out: cell panel IC50, A-549
[6] = A-427, read-out: cell panel IC50, A-427
[7] = AU565, read-out: cell panel IC50, AU-565
[8] = BT-549, read-out: cell panel IC50, BT-549
[9] = HCT-116, read-out: cell panel IC50, HCT-116
[10] = K562, read-out: cell panel IC50, K-562
[11] = LS174T, read-out: cell panel IC50, LS 174T

`CC(C)(C)c1nc(-c2cccc(NS(=O)(=O)c3c(F)cccc3F)c2F)c(-c2ccnc(N)n2)s1` [dabrafenib] was tested, and the IC50 [1, 3] was 3.5 µM, the IC50 ([1]; A204, cell line A-204, read-out: cell panel IC50, A-204) was 4.69 µM and the IC50 [1, 4] was 2.28 µM. For the same compound, the IC50 [1, 5] was 4.12 µM, the IC50 ([1]; A-375, cell line A375, read-out: cell panel IC50, A375) was 0.026 µM and the IC50 [1, 6] was 3.45 µM. It also gave an IC50 [1, 7] of 5.92 µM, an IC50 [1, 8] of 5.73 µM and an IC50 [1, 9] of 0.85 µM. The IC50 [1, 10] was 13.5 µM, the IC50 [1, 11] was over 31.6 µM and the IC50 ([1]; SHP77, cell line SHP-77, read-out: cell panel IC50, SHP-77) was 28.9 µM. For the same compound, the IC50 ([1]; SW-620, cell line SW620, read-out: cell panel IC50, SW620) was 2.47 µM, the IC50 ([1]; U2OS, cell line U-2 OS, read-out: cell panel IC50, U-2 OS) was over 31.6 µM and the IC50 ([1]; cell line J82, read-out: cell panel IC50, J82) was over 31.6 µM. The IC50 ([1]; cell line PA-1, read-out: cell panel IC50, PA-1) was 2.11 µM, the IC50 ([1]; cell line SJCRH30, read-out: cell panel IC50, SJCRH30) was over 31.6 µM and the IC50 ([1]; cell line SR, read-out: cell panel IC50, SR) was 2.12 µM. For the same compound, the IC50 ([1]; U-87 MG cell line, ATPlite, 72 hours, read-out: IC50 in cell proliferation assay (table S5 cellpanel data)) was over 31.6 µM, the IC50 ([1]; cell line 769-P, read-out: cell panel IC50, 769-P) was 10.9 µM and the IC50 ([1]; cell line 786-0, read-out: cell panel IC50, 786-0) was 3.3 µM. For the same compound, the IC50 ([1]; cell line ACHN, read-out: cell panel IC50, ACHN) was 1.15 µM, the IC50 ([1]; cell line AN3 CA, read-out: cell panel IC50, AN3 CA) was over 31.6 µM and the IC50 ([1]; cell line BT-20, read-out: cell panel IC50, BT-20) was over 31.6 µM. For the same compound, the IC50 ([1]; cell line BxPC-3, read-out: cell panel IC50, BxPC-3) was 2.68 µM, the IC50 ([1]; cell line C-33 A, read-out: cell panel IC50, C-33 A) was 3.31 µM and the IC50 ([1]; cell line CAL 27, read-out: cell panel IC50, CAL 27) was 30.8 µM. The IC50 ([1]; cell line CCRF-CEM, read-out: cell panel IC50, CCRF-CEM) was over 31.6 µM, the IC50 ([1]; cell line DLD-1, read-out: cell panel IC50, DLD-1) was 3.92 µM and the IC50 ([1]; cell line FaDu, read-out: cell panel IC50, FaDu) was 4.38 µM. It also gave an IC50 ([1]; cell line HCT-15, read-out: cell panel IC50, HCT-15) of 3.33 µM, an IC50 ([1]; cell line Hs 578T, read-out: cell panel IC50, Hs 578T) of 11.5 µM and an IC50 ([1]; cell line Jurkat E6.1, read-out: cell panel IC50, Jurkat E6.1) of 3.12 µM. For the same compound, the IC50 ([1]; cell line LoVo, read-out: cell panel IC50, LoVo) was 1.86 µM, the IC50 ([1]; cell line MG-63, read-out: cell panel IC50, MG-63) was over 31.6 µM and the IC50 ([1]; cell line MOLT-4, read-out: cell panel IC50, MOLT-4) was 29.1 µM. The IC50 ([1]; cell line MeWo, read-out: cell panel IC50, MeWo) was 6.49 µM, the IC50 ([1]; cell line NCI-H82, read-out: cell panel IC50, NCI-H82) was 2.54 µM and the IC50 ([1]; cell line NCI-H460, read-out: cell panel IC50, NCI-H460) was 2.98 µM. It also gave an IC50 ([1]; cell line OVCAR-3, read-out: cell panel IC50, OVCAR-3) of 5.26 µM, an IC50 ([1]; cell line RPMI-7951, read-out: cell panel IC50, RPMI-7951) of 0.024 µM and an IC50 ([1]; cell line SK-N-AS, read-out: cell panel IC50, SK-N-AS) of 3.55 µM. The IC50 ([1]; cell line SW48, read-out: cell panel IC50, SW48) was 10.6 µM, the IC50 ([1]; cell line SW480, read-out: cell panel IC50, SW480) was 16.6 µM and the “%-inhibition of FGFR1(V561M)” value [2] was -0.282%.
For `Cc1nc(Nc2ncc(C(=O)Nc3c(C)cccc3Cl)s2)cc(N2CCN(CCO)CC2)n1` [dasatinib], the “Difference between the average IC50 in the cell panel and the most potent IC50” value ([1]; 44 cell line panel, Figure 2D) was “more than 1000 fold”, the IC50 ([1]; 4-4 cell, read-out: cell panel IC50, J82) was 2.5 µM and the IC50 ([1]; 4-4 cell, read-out: cell panel IC50, PA-1) was 0.055 µM. The IC50 ([1]; 4-4 cell, read-out: cell panel IC50, SJCRH30) was 1.29 µM, the IC50 ([1]; 4-4 cell, read-out: cell panel IC50, SR) was 3 µM and the IC50 ([1]; 769-P, read-out: cell panel IC50, 769-P) was 0.055 µM. It also gave an IC50 ([1]; 786-0, read-out: cell panel IC50, 786-0) of 0.359 µM, an IC50 [1, 3] of 0.099 µM and an IC50 ([1]; A204, read-out: cell panel IC50, A-204) of 0.021 µM. For the same compound, the IC50 [1, 4] was 0.681 µM, the IC50 [1, 5] was 10.2 µM and the IC50 ([1]; A-375, read-out: cell panel IC50, A375) was 0.518 µM. For the same compound, the IC50 [1, 6] was 2.18 µM, the IC50 ([1]; ACHN, read-out: cell panel IC50, ACHN) was 0.048 µM and the IC50 ([1]; AN3-CA, read-out: cell panel IC50, AN3 CA) was 3.55 µM. For the same compound, the IC50 [1, 7] was 7.07 µM, the IC50 ([1]; BT-20, read-out: cell panel IC50, BT-20) was 9.8 µM and the IC50 [1, 8] was 0.143 µM. It also gave an IC50 ([1]; BXPC-3, read-out: cell panel IC50, BxPC-3) of 0.204 µM, an IC50 ([1]; C-33-A, read-out: cell panel IC50, C-33 A) of 0.009 µM and an IC50 ([1]; CAL-27, read-out: cell panel IC50, CAL 27) of 0.153 µM. For the same compound, the IC50 ([1]; CCRF-CEM, read-out: cell panel IC50, CCRF-CEM) was 7.19 µM, the IC50 ([1]; DLD-1, read-out: cell panel IC50, DLD-1) was 3.4 µM and the IC50 ([1]; FaDu, read-out: cell panel IC50, FaDu) was 0.446 µM. The IC50 ([1]; HCT-15, read-out: cell panel IC50, HCT-15) was 1.68 µM, the IC50 [1, 9] was 14.2 µM and the IC50 ([1]; Hs-578T, read-out: cell panel IC50, Hs 578T) was 0.079 µM. It also gave an IC50 ([1]; Jurkat E6.1, read-out: cell panel IC50, Jurkat E6.1) of 2.39 µM, an IC50 [1, 10] of 0.00047 µM and an IC50 [1, 11] of 3.5 µM. For the same compound, the IC50 ([1]; LoVo, read-out: cell panel IC50, LoVo) was 1.58 µM, the IC50 ([1]; MG-63, read-out: cell panel IC50, MG-63) was over 10 µM and the IC50 ([1]; MOLT-4, read-out: cell panel IC50, MOLT-4) was 0.862 µM. It also gave an IC50 ([1]; MeWo, read-out: cell panel IC50, MeWo) of 17 µM, an IC50 ([1]; NCI-H82, read-out: cell panel IC50, NCI-H82) of 10.3 µM and an IC50 ([1]; NCI-H460, read-out: cell panel IC50, NCI-H460) of 19 µM. For the same compound, the IC50 ([1]; OVCAR-3, read-out: cell panel IC50, OVCAR-3) was 0.12 µM, the IC50 ([1]; RPMI-7951, read-out: cell panel IC50, RPMI-7951) was 0.034 µM and the IC50 ([1]; SHP77, read-out: cell panel IC50, SHP-77) was over 31.6 µM. It also gave an IC50 ([1]; SK-N-AS, read-out: cell panel IC50, SK-N-AS) of 0.636 µM, an IC50 ([1]; SW48, read-out: cell panel IC50, SW48) of over 31.6 µM and an IC50 ([1]; SW480, read-out: cell panel IC50, SW480) of 2.1 µM. The IC50 ([1]; SW-620, read-out: cell panel IC50, SW620) was 12.4 µM, the IC50 ([1]; U2OS, read-out: cell panel IC50, U-2 OS) was 3.23 µM and the IC50 ([1]; U-87 MG, 72 h, read-out: IC50 in cell proliferation assay (table S5 cellpanel data)) was 14.9 µM.
